Assay results published in patent US20250275995A1, “NICOTINAMIDE RIBOSIDE DOSAGE REGIMEN FOR TREATING PARKINSON'S DISEASE” (VESTLANDETS INNOVASJONSSELSKAP AS (VIS), priority 2022, published 2025).

Assays:
[1] = system: cerebral metabolic activity; assay: NADPARK: FDG-PET, NR-related metabolic pattern (NRRP); assay type: in vivo, human
Excerpt: This novel NR-related metabolic pattern (NRRP) was characterized by multiple regional metabolic changes, including bilateral metabolic reductions in the caudate and putamen, extending into the adjacent globus pallidus, and in the thalamus (FIG. 1D-E). […] The NRRP expression can be derived from the FDG-PET data, as previously described (Cell Metab. 2022 Mar. 1; 34(3):396-407.e6). For example, a NR-related metabolic pattern (NRRP) can be identified by using ordinal trends/canonical variates analysis (OrT/CVA), a supervised form of principal component analysis (PCA) (Habeck et al., (2005), Neural Computation 17, 1602-1645). […] Likewise, the reliability of the voxel loadings (i.e., region weights) on the resulting network topography can be assessed using bootstrap resampling procedures (Habeck and Stern (2010), Cell Biochemistry and Biophysics 58, 53-67; Mure et al. (2011), Neuroimage 54, 1244-1253). The analysis can be restricted to the top PC patterns, accounting for greater than 75% of the subject×voxel variance in the longitudinal data. Expression values for these PCs can then be entered singly and in all possible linear combinations to identify significant monotonic trends in the individual subject data, i.e., consistent increases (or decreases) in pattern expression across the subjects with few if any violations (p<0.05; permutation test, 1000 iterations). The resulting coefficients are applied to the corresponding PC patterns to construct the NR-related topography. […] The analysis can be performed within a population or the individual subject's gray matter brain mask defined by the FDG-PET scans, e.g., as outlined in Table 1.

[2] = system: blood NAD^+ levels; assay: NAD-brain pharmacokinetic study: whole blood NAD+ response; assay type: in vivo, human
Experimental: The NAD-brain study performs a parallel assessment of NAD replenishment therapy pharmacokinetics in the blood and brain of healthy human subjects and subjects with Parkinson's disease (PD). A total of 10 healthy individuals (5 men and 5 women) and 10 individuals with PD (5 men and 5 women) undergo repeated blood sampling and 31P-MRS brain scans during two 20-day periods, each of which starts with 8 days of daily intake of NR 600 mg×2, or NMN 600 mg×2. The two 20-day period is 14 days apart to allow for washout of the previous compound. Blood is analyzed for NR and NAD-metabolites using HPLC-MS. By this approach, we measured the simultaneous change in NAD-metabolism overtime in blood and brain and establish blood and brain pharmacokinetics for NAD replenishment therapy in humans.
NR (Niagen®, Chromadex) at a dose of 600 mg×2 daily). NMN (Restorin®, from Seragon Pharmaceutics, or MIB-626 from Metro International Biotech) at a dose of 600 mg×2 daily.
• At screening, participants are assessed for eligibility, inclusion/exclusion criteria, medical history and concomitant medication is recorded, and informed consent signed. • The NAD-brain study performs a parallel assessment of NAD replenishment therapy pharmacokinetics in the blood and brain of healthy human subjects and subjects with Parkinson's disease (PD). Healthy individuals and individuals with PD undergo repeated blood sampling and 31P-MRS brain scans during two 20-day periods, each of which starts with 8 days of daily intake of NR 600 mg×2, or NMN 600 mg×2 (Table 10). • For each 20-day period the testing (i.e., scanning and blood draw) frequency is shown in Table 10, below. The two 20-day periods are 14 days apart to allow for washout of the previous compound.
Blood is analyzed for NR and NAD-metabolites using HPLC-MS metabolomics. Snap-frozen whole blood is used for the analysis of NAD^+. Blood is drawn from the participant in EDTA tube (VACUETTE® TUBE 2 ml K2E K2EDTA). The EDTA tube is gently inverted at least 10 times without shaking; 8×200 μl of blood from the EDTA tube is aliquoted into 8×0.5 ml micro tubes; these are closed, and all the micro tubes are immerse simultaneously in liquid nitrogen within 2 min from when blood has started flowing into the EDTA tube; then transferred frozen to −80° C. freezer for storage; stored at −80C in freezer-compatible cardboard or plastic storage boxes; and shipped on dry ice.
This is a pharmacokinetic (PK) study where 6 healthy individuals (3 male and 3 female): • 1) Received NR 1200 mg daily (600 mg×2) for 8 days, followed by an additional 11 days follow up, while undergoing serial blood and brain NAD-measurement. • 2) Received NMN 1200 mg daily (600 mg×2) for 8 days, followed by an additional 11 days follow up, while undergoing serial blood and brain NAD-measurement.
The individuals were mixed, so that in stage-1 three individuals received NR and three individuals received NMN, then in stage-2 they switched (Cross-over design). There were almost three weeks (20 days) of washout between the last dose of the first compound, and before the first dose of the second compounds.

SMILES: NC(=O)c1ccc[n+]([C@@H]2O[C@H](CO)[C@@H](O)[C@H]2O)c1 [NR, nicotinamide riboside]
- effect size (ES) of NRRP expression increase vs placebo ([1]; 1000 mg NR): 0.883
- increase in NRRP expression (mean±SD) ([1]; 1000 mg NR, NR treatment group): 0.68±0.86
- effect of NRRP expression change on PD cerebral metabolic pattern ([1]; NR group, 1000 mg daily, FDG-PET): partial normalization of the striatal and thalamic hypermetabolism
- blood NAD^+ levels ([2]; 1200 mg daily (600 mg×2) for 8 days, 6 healthy individuals): increased in all individuals
- blood NAD^+ response, NR compared with NMN ([2]; 1200 mg daily (600 mg×2) for 8 days, cross-over): stronger than the NMN response
- day of maximal NAD levels in the blood ([2]; 1200 mg daily for 8 days, last dose morning of day 8): 9 days
- time to reach a steady heightened state of NAD-metabolism in blood and brain ([2]; NR supplementation): more than 8 days
- plateau of blood NAD^+ levels ([2]; after 8 days of precursor intake, 1200 mg daily): did not plateau after 8 days
